Values joined by “and” are separate entries in the source; they are usually repeats but may differ in a detail not shown here. Equal entries are not always repeated.
Assays:
Assay type in all cases: physicochemical
[1] = Leaching of methylene blue from treated catheter into normal saline replaced monthly; conditions: catheter treated with only methylene blue
Source text: When the saline is replaced with fresh saline, exactly the same intense blue color developed in the fresh saline solution during the second month. This process of replacing the saline solution can be continued, that is, replacing the saline solution with fresh solution monthly, for at least nine months. The color resulting during the sixth month in the fresh saline solution is a light blue. If the process is continued for an additional 3 months or up to a total of 9 months, the resulting fresh saline solution is light blue in color, but the release of the dye continues.

[2] = Total methylene blue loaded onto and released from polycarbonate discs and catheters, desorbed in MeOH (0.1% TFA), UV 662 nm
Procedure: An experiment was performed in order to determine the total amount of methylene blue that was loaded onto a polycarbonate disc in comparison to a polycarbonate catheter. The discs were 1.27 cm or 0.5 inches in diameter and included a surface area of 2.53 cm^2 and a thickness of 0.60 mm. The catheter pieces were 1″ long and included a surface area of 4.64 cm^2 and a thickness of 0.51 mm. A 160 ml solution of 0.24 M sodium citrate was prepared into which 0.1% or […] of methylene blue was added. Then, 2%, or 3.2 g of ascorbic acid, was added to the solution and mixed for 1-2 minutes and 10 ml of the solution was placed into 25 ml flasks. The discs and catheter pieces were rinsed and placed into the 25 ml flasks of solution and placed on a shaker at 220 rpm at 37° C. for three hours. The catheter pieces and discs were removed, rinsed with distilled water, and dried. The catheter pieces and discs were desorbed in 20 ml of MeOH (w/0.1% TFA) and placed on the shaker until the membranes appeared whitish in color. Appropriate dilutions were made and the UV absorbance was measured at 662 nm. The methylene blue concentration was calculated based on a standard curve generated in a similar manner. The results are set forth below in Table 4 and 5.

[3] = Perfusion of parabens and methylene blue through polycarbonate membrane in perfusion chamber (HPLC of lower chamber); conditions: for perfusion of methylene blue through membrane without activation: only 1,2-propanediol solution, absence of Citrate and activation by AA, after 4.5 days (Treatments 1 and 2)
Procedure: An experiment was performed to determine a method for perfusing methylene blue, methyl paraben, and propyl paraben through a polycarbonate membrane with causing only minimal changes to the strength and elasticity of the membrane. In FIG. 12, there is illustrated a perfusion chamber system 50 used during the experiment. System 50 includes an upper chamber 51 and a lower chamber 52 separated by a polycarbonate membrane 53 having a thickness of 0.60 mm. The upper and lower chambers 51, 52 are generally structured to hold 10.5 cm^3 or 10.5 ml of fluid. The upper chamber 51 was connected to a peristaltic pump (not shown) and the lower chamber 52 was filled with distilled water. First and second solutions, respectively including the parabens and the methylene blue, were prepared in accordance with the method set forth in EXAMPLE 6 above. As best seen in Tables 6 and 7 below, the solutions were connected to the pump and passed through the first chamber 51 at a constant rate at 37° C. over various lengths of time.
Table 6 includes data obtained from HPLC analysis comparing the methyl paraben, propyl paraben, and methylene blue concentrations in the lower chamber 52. The parameters for the methyl and propyl paraben and methylene blue treatments are indicated in the left hand columns.

[4] = Desorption of methylene blue from impregnated catheter pieces in 0.9% saline (HPLC)
Procedure: In another form of the present application, one inch polycarbonate catheter pieces including a surface area of about 4.64 cm^2 were impregnated with methylene blue. A solution of 0.24 M sodium citrate buffer pH 4.5 was prepared with 100 mg % methylene blue activated by 2% L-ascorbic acid immediately beforehand. Catheter pieces were placed in flasks containing the solution and the flasks were placed on a shaker at 220 rpm and 27° C. for 3 hours.
Desorption analysis of the methylene blue impregnated catheter pieces was performed in a 0.9% solution of saline. The total amount of methylene blue released from the catheter pieces was calculated using HPLC analysis performed with a Waters Alliance 2690 including a 996 Photodiode Array Detector according to conditions in Example 4. The results of the HPLC analysis corresponding to the desorption of methylene blue from the methylene blue impregnated polymeric material are set forth in the graph of FIG. 10.
One inch polycarbonate catheter pieces including a surface area of about 4.64 cm^2 were impregnated with methyl paraben and propyl paraben. A solution of 100% 1,2-propanediol was prepared with 9% methyl paraben and 2% propyl paraben. Pairs of the one inch catheter pieces were placed into three 25 ml flasks including 10 ml of parabens solution. The flasks were placed on a shaker at 220 rpm and 27° C. for two, four, or nine hours. At the end of each time period, the catheter pieces were removed, rinsed with distilled water, and dried.
The catheter pieces were then impregnated with methylene blue. A solution of 0.24 M sodium citrate buffer with a pH of 4.5 was prepared with 100 mg % methylene blue activated by 2% L-ascorbic acid immediately beforehand. Catheter pieces were placed in flasks containing the solution and the flasks were placed on a shaker at 220 rpm and 27° C. for 3 hours. Desorption analysis of the parabens and methylene blue impregnated catheter pieces was performed in a 0.9% solution of saline according to the method described earlier.

[5] = No Parabens, MB treatment 3 hrs 0.24 M Citrate buffer, 4.5 pH
[6] = paraben treatment 2 hrs- 100% PG, 9% MP, 2% PP, MB treatment 3 hrs
[7] = paraben treatment 4 hrs- 100% PG, 9% MP, 2% PP, MB treatment 3 hrs
[8] = paraben treatment 9 hrs- 100% PG, 9% MP, 2% PP, MB treatment 3 hrs
[9] = flat polycarbonate disc (discs 1-4), NO Parabens, MB treatment 3 hrs 0.24M Citrate Buffer, 4.5 pH, 100 mg % MB, 2% AA

In the case of `CN(C)c1ccc2nc3ccc(=[N+](C)C)cc-3sc2c1` [MB, methylene blue], the “duration of release of the dye from treated catheter” value [1] is reported as no less than 9 months, the “factor by which flat discs exceed catheters in total sorption and desorption of methylene blue per cm^2” value ([2]; Tables 4 and 5, no parabens) is reported as roughly 6.8 and the “Average ug/cm^2 MB released” value ([2]; average of flat discs 1-4, NO Parabens, MB treatment 3 hrs) is reported as 1942.8 ug/cm^2. For the same compound, the “% MB released from catheter in saline desorption/total released in MeOH (0.1% TFA)” value [2, 5] was 58.8%, the “mg released based on 1″ of catheter” value [2, 5] was 1.32 mg and the “mg released per cm^2 of catheter” value [2, 5] was 0.284 mg per cm^2. The “ug released per cm^2 of catheter” value [2, 5] was 284.5 ug per cm^2, the “% MB released from catheter in saline desorption/total released in MeOH (0.1% TFA)” value [2, 6] was 73.2% and the “mg released based on 1″ of catheter” value [2, 6] was 1.65 mg. For the same compound, the “mg released per cm^2 of catheter” value [2, 6] was 0.356 mg per cm^2, the “ug released per cm^2 of catheter” value [2, 6] was 356.3 ug per cm^2 and the “% MB released from catheter in saline desorption/total released in MeOH (0.1% TFA)” value [2, 7] was 65.5%. For the same compound, the “mg released based on 1″ of catheter” value [2, 7] was 1.71 mg, the “mg released per cm^2 of catheter” value [2, 7] was 0.368 mg per cm^2 and the “ug released per cm^2 of catheter” value [2, 7] was 368.5 ug per cm^2. For the same compound, the “% MB released from catheter in saline desorption/total released in MeOH (0.1% TFA)” value [2, 8] was 76.4%, the “mg released based on 1″ of catheter” value [2, 8] was 1.78 mg and the “mg released per cm^2 of catheter” value [2, 8] was 0.384 mg per cm^2. The “ug released per cm^2 of catheter” value [2, 8] was 383.6 ug per cm^2, the “Amt MB (mg) released per square cm (mg/2.53 cm^2) on disc” value [2, 9] was 1.95 mg per square cm and 1.92 mg per square cm and 1.93 mg per square cm and 1.96 mg per square cm and the “Average amount (mg) released per disc” value [2, 9] was 4.94 mg and 4.87 mg and 4.88 mg and 4.97 mg. The “ug/cm^2 MB released, flat disc” value [2, 9] was 1954.1 ug/cm^2 and 1923.6 ug/cm^2 and 1929.0 ug/cm^2 and 1964.3 ug/cm^2, the “time to perfuse through the membrane” value ([3]; activated MB solution (citrate, AA), 0.60 mm polycarbonate membrane) was roughly 10 days and the “concentration of methylene blue in lower chamber, in words” value ([3]; after 10 days of flow by activated solution) was “not significant”. The “Total mg MB in 10.5 mL lower chamber” value ([3]; lower chamber, parabens ~9 hrs at 37 C., then activated MB sol'n ~10 days) was 0.0105 mg, the “MB conc” value ([3]; lower chamber, parabens ~9 hrs at 37 C., then activated MB sol'n ~10 days, changed every 1 day) was 0.001 mg/mL and the “perfusion of methylene blue through membrane without activation” value ([3]; listed as Methylene blue) was “would not perfuse”. For the same compound, the “perfusion of methylene blue through membrane without activation” value ([3]; listed as methylene blue) was “minimal”, the “period of significant release of methylene blue” value ([4]; catheters preincubated with parabens, 0.9% saline) was 10 days and the “methylene blue release at the conclusion of the 81st day” value ([4]; catheters pretreated with parabens, 0.9% saline (FIG. 11)) was “a small amount of methylene blue still being released”. The “methylene blue release during the last 20 days of the experiment” value ([4]; catheters treated only with methylene blue, 0.9% saline (FIG. 10)) was “negligible release”.

— patent US20080279907A1, “Antimicrobial medical devices and methods for making and using same” (Ash Access Technology, Inc., priority 2007, published 2008)
